From ChEMBL document CHEMBL1201862, “PubChem BioAssay data set” (2004)
Blank lines part the entries; values can stand above or below the compound they belong to. Active and inactive are the calls of the source.

Legend:
[1] = target: Cytochrome P450 2C19 (Homo sapiens, UniProt P33261); assay: Cytochrome panel assay with activity outcomes. Panel member name: p450-cyp2c19 Compounds with AC50 equal or less than 10 uM are considered active; format: functional; settings: read-out: AC50
[2] = inhibition of ARNT PAS-B/TACC3 complex formation – biochemical, AlphaScreen, cherry-picked samples, confirmation (AID 651703); format: functional, Homo sapiens;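 further: His-tagged ARNT PAS-B domain paired with GST-TACC3 E629A dimer coactivator fragment; potency of inhibitors that break up the complex and lower AlphaScreen signal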
[3] = target: Cytochrome P450 2C9 (Homo sapiens, UniProt P11712)
[4] = target: T1, Tyrosine-protein phosphatase non-receptor type 7 (Homo sapiens, UniProt P35236); format: functional
T1 sequence (P35236 whole entry): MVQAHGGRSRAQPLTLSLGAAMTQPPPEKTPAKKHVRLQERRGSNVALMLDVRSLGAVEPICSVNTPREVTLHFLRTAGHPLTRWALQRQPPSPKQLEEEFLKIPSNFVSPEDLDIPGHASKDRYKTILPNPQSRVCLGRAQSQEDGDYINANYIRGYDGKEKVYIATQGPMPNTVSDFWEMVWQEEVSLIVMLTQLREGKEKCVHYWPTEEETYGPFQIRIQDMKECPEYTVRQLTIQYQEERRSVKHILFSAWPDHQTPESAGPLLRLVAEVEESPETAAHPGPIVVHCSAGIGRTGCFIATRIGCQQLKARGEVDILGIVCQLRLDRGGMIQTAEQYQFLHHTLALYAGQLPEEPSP

[5] = target: Glyceraldehyde-3-phosphate dehydrogenase (Homo sapiens, UniProt P04406)
Glyceraldehyde-3-phosphate dehydrogenase, sequence (P04406 whole entry): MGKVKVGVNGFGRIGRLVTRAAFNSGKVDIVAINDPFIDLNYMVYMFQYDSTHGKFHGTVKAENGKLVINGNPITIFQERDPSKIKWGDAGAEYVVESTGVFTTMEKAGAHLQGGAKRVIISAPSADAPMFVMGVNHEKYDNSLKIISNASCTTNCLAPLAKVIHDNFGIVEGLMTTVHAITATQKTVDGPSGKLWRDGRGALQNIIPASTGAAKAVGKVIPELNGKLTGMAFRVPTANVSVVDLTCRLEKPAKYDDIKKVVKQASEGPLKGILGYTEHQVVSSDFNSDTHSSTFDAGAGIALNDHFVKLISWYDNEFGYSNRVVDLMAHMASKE

[6] = target: Heat shock cognate 71 kDa protein (Homo sapiens, UniProt P11142); assay: In Vitro Hsc70 Dose Response Fluorescence Polarization Assay. [Related pubchem assays: 1072 ]
[7] = target: Large T antigen (Simian virus 40, UniProt P03070); format: functional, Betapolyomavirus macacae;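 further: Confirmatory-stage PubChem screen for compounds that inhibit SV40 T antigen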
[8] = target: NS3 (Hepatitis C virus, UniProt A3EZJ3); assay: PubChem AID 2173; set-up: species or system Hepacivirus hominis
NS3, sequence (A3EZJ3 whole entry): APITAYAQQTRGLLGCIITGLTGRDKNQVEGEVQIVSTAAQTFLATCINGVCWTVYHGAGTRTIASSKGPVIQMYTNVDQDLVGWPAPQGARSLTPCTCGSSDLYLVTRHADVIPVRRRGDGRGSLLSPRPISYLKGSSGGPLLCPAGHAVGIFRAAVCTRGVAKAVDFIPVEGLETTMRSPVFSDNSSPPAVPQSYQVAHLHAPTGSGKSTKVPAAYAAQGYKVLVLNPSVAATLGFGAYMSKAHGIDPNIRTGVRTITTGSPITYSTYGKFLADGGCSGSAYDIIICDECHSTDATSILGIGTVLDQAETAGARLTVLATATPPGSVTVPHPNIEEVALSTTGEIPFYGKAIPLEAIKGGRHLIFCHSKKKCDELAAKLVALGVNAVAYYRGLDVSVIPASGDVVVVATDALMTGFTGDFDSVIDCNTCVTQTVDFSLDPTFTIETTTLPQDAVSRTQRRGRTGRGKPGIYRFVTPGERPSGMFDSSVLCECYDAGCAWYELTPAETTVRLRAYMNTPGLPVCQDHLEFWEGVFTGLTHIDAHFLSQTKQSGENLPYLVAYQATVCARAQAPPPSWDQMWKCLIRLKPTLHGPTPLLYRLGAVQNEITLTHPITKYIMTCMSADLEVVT

[9] = target: Heat shock 70 kDa protein 1A (Homo sapiens, UniProt P0DMV8); assay: inhibition of Hsp70 binding activity – biochemical, fluorescence polarization, SAR follow-up (AID 1072)
[10] = target: T2, Dual specificity protein phosphatase 6 (Rattus norvegicus, UniProt Q64346)
T2 sequence (Q64346 whole entry): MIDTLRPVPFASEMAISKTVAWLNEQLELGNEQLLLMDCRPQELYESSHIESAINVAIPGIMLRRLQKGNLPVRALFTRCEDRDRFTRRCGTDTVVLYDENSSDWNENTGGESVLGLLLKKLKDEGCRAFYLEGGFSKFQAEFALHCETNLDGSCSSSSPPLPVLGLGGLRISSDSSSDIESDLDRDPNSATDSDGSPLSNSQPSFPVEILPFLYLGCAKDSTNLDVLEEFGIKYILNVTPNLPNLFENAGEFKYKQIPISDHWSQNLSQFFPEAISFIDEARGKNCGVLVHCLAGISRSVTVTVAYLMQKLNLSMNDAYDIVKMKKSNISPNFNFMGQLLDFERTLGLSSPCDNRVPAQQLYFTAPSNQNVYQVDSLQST

[11] = tested on: HeLa; assay: viability loss in HeLa cells – cell-based, 24 h, cherry-picked samples, cytotoxicity control, dose response (AID 504726); format: functional; settings: Homo sapiens;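 further: potency for cytotoxicity as loss of luminescence signal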
[12] = target: T3, ORF 73 (Human herpesvirus 8, UniProt O40947); assay: KSHV LANA DNA-binding disruption – biochemical, fluorescence polarization, cherry-picked samples, dose response (AID 504725); set-up: species or system Human gammaherpesvirus 8;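 further: fluorescence polarization of a labeled DNA duplex reporting LANA DNA binding; potency is for inhibitors that block LANA binding to the DNA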
T3 sequence (O40947 whole entry): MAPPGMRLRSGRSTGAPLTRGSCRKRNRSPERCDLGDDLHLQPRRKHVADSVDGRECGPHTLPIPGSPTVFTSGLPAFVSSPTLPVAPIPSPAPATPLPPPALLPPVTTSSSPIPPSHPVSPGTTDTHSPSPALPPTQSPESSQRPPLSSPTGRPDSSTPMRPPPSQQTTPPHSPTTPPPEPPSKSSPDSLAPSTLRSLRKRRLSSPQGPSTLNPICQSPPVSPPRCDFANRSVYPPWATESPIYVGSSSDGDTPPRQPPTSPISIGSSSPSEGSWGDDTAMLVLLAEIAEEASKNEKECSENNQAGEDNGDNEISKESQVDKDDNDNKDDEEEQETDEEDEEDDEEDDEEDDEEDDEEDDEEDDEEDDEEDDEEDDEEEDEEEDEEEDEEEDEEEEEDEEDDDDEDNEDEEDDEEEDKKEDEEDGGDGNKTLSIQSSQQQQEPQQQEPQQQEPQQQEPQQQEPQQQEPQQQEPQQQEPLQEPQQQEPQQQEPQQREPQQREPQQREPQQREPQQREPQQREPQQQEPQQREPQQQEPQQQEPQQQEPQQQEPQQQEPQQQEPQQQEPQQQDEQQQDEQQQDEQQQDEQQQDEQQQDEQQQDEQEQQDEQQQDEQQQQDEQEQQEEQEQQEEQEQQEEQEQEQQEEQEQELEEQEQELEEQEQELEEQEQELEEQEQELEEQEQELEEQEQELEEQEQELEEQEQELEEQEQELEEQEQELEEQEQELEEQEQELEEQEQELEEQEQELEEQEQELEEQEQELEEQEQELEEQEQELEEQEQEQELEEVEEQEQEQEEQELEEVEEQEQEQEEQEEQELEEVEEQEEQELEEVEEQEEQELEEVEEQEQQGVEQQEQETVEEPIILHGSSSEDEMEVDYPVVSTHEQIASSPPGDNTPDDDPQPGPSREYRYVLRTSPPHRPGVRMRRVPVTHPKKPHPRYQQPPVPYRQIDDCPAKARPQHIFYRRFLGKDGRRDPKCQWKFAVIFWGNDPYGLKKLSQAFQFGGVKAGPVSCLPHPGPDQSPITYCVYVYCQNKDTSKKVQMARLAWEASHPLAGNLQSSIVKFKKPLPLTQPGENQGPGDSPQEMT

[13] = target: T2, Dual specificity protein phosphatase 6; format: functional
[14] = target: T4, Small ubiquitin-related modifier 2 (Homo sapiens, UniProt P61956); assay: disruption of SUMO2 interaction with SIM peptide – biochemical, fluorescence polarization, uHTS hits, selectivity assay for SUMO1 interaction inhibitor project, dose response (AID 624385); format: functional; settings: read-out: IC50_Mean
T4 sequence (P61956 whole entry): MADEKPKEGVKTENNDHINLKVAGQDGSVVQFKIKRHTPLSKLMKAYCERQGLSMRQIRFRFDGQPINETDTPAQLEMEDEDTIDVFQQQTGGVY

[15] = target: T5, Small ubiquitin-related modifier 1 (Homo sapiens, UniProt P63165); assay: SUMO1 protein interaction blockers, potency – biochemical, fluorescence polarization, uHTS hits, dose response (AID 624382); format: functional; settings: read-out: IC50_Mean
T5 sequence (P63165 whole entry): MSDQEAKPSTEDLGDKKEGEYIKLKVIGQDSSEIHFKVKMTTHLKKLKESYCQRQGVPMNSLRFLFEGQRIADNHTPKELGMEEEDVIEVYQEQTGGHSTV

[16] = target: T4, Small ubiquitin-related modifier 2; assay: SUMO2 binding disruption by SUMO1 hits – biochemical, FRET, human SUMO2, uHTS hits, selectivity assay for SUMO1 interaction inhibitor project, dose response (AID 624384); format: functional; settings: read-out: IC50_Mean
[17] = target: T5, Small ubiquitin-related modifier 1; assay: SUMO1 protein-protein binding blockers, potency – biochemical, FRET, dose response (AID 624383); format: functional; settings: read-out: IC50_Mean
[18] = target: T6, Rac GTPase-activating protein 1 (Homo sapiens, UniProt Q9H0H5); assay: blockers of MgcRacGAP-driven Rac1 GTP hydrolysis – biochemical, ADP Hunter fluorescence, primary and confirmatory, confirmation (AID 624330); format: functional
T6 sequence (Q9H0H5 whole entry): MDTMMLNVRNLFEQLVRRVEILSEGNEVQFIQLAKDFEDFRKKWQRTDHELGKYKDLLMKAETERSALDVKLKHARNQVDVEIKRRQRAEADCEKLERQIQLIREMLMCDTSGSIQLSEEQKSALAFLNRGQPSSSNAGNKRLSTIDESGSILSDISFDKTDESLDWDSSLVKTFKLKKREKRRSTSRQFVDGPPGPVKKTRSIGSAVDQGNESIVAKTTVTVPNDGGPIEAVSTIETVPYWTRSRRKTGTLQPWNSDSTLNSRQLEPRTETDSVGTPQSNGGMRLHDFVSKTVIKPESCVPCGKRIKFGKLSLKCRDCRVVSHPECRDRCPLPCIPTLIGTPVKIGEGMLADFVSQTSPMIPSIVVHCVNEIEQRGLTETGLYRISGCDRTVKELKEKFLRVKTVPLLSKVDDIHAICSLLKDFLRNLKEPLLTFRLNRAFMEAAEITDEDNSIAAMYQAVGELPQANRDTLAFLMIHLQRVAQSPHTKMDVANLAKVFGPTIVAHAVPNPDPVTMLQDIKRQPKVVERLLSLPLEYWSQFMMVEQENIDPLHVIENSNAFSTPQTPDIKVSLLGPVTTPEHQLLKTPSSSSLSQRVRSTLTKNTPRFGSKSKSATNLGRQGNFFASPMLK

[19] = target: Ras and Rab interactor 1/Tyrosine-protein kinase ABL1 (Homo sapiens, UniProt P00519+Q13671); format: functional;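 further: biochemical TR-FRET dose-response test measuring inhibition of binding between Rin1 and Abl proteins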
Ras and Rab interactor 1/Tyrosine-protein kinase ABL1, sequence (P00519 whole entry): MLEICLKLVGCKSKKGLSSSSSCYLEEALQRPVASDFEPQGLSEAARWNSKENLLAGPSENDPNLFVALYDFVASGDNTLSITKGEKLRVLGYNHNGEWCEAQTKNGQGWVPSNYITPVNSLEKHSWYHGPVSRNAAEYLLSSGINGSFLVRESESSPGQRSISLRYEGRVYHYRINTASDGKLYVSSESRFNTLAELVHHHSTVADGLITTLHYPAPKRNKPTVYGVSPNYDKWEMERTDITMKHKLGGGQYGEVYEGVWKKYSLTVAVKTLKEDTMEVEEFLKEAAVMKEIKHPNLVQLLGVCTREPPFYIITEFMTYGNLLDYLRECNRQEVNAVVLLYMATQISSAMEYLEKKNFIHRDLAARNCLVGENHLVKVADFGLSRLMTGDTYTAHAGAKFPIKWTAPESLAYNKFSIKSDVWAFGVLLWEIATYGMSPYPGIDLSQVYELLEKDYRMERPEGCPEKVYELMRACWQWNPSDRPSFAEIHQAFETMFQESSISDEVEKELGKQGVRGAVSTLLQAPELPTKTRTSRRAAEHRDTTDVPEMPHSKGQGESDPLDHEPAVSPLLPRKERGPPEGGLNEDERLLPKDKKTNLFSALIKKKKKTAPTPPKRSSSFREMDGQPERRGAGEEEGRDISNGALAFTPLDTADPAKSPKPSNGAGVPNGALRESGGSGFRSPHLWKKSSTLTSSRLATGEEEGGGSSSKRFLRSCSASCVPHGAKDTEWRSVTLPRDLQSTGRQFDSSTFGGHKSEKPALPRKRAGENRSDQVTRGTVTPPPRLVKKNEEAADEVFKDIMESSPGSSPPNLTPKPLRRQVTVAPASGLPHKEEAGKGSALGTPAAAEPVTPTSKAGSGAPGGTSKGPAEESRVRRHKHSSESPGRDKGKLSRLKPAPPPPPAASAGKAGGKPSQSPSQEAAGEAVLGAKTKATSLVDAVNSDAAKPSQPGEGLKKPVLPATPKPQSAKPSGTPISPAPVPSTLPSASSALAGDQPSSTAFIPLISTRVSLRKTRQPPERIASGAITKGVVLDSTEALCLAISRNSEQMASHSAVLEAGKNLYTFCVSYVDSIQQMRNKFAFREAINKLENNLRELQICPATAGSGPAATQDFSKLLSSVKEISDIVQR
Ras and Rab interactor 1/Tyrosine-protein kinase ABL1, sequence (Q13671 whole entry): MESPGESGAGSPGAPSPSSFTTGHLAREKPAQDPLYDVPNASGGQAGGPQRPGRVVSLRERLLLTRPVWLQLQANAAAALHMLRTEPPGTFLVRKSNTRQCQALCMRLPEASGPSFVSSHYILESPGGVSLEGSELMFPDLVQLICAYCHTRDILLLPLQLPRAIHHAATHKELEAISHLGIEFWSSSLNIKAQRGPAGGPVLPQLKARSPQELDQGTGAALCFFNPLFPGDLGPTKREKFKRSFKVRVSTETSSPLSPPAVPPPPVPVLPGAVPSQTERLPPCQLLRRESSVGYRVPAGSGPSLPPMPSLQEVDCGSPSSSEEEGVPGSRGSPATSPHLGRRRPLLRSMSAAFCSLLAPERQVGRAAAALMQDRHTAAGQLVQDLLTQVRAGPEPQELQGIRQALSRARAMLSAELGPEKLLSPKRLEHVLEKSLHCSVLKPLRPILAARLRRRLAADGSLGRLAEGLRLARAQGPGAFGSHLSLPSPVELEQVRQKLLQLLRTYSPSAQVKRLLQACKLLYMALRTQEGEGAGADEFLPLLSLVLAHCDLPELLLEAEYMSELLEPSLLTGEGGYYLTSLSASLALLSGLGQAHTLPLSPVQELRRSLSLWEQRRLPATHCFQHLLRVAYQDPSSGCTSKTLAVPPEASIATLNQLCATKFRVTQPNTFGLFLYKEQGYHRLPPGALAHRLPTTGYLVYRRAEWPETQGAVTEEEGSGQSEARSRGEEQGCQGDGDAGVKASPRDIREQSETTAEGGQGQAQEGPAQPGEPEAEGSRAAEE

[20] = target: Melanocortin receptor 4 (Homo sapiens, UniProt P32245); format: functional, cell-based;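 further: Cell-based assay with luminescence read-out, confirmatory dose-response testing for agonist activity of biased ligands at MC4R; human U2OS cells with tagged receptor and beta-arrestin; potency of agonists that increase receptor coupling to beta-arrestin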
Melanocortin receptor 4, sequence (P32245 whole entry): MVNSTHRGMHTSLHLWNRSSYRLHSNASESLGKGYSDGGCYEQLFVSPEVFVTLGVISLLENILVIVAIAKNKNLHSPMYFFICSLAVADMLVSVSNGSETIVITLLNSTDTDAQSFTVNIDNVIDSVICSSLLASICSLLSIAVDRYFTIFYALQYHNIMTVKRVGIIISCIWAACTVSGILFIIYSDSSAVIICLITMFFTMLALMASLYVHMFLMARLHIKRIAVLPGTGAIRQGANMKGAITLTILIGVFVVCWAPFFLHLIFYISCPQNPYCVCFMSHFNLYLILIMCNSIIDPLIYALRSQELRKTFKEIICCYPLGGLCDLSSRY

[21] = Trypanosoma cruzi growth suppression in host cells – NIH3T3 host cells, beta-gal luminescence, confirmation (AID 2044); format: functional, cell-based;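 further: intracellular parasites grown in NIH/3T3 mouse fibroblasts as host cells; luminescent beta-galactosidase reporter signal from transgenic T. cruzi replicating inside host cells; inhibitors lower the luminescence signal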
[22] = NIH3T3 cell viability loss – ATP luminescence, mouse fibroblasts, counter-screen, dose response (AID 2010); format: functional, cell-based;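 further: cells exposed to compound for about 90 hours before reading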
[23] = target: T7, Mannose-6-phosphate isomerase (Homo sapiens, UniProt P34949); assay: MPI inhibition at elevated mannose 6-phosphate – biochemical, fluorescence intensity, high mannose 6-phosphate, primary screen (AID 1220)
T7 sequence (P34949 whole entry): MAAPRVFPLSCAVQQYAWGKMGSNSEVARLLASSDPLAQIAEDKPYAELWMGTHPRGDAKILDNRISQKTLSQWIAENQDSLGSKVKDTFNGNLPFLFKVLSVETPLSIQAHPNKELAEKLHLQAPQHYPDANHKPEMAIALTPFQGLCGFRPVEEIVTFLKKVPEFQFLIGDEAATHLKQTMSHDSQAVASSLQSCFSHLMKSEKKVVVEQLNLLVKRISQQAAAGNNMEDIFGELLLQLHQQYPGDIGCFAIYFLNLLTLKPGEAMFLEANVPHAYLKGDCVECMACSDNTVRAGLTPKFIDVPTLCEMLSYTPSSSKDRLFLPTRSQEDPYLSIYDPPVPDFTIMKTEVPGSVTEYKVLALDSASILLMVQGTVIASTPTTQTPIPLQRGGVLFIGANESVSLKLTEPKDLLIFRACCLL

[24] = target: Heat shock protein HSP 90-alpha (Homo sapiens, UniProt P07900); format: functional, organism-based
[25] = target: Mitochondrial peptide methionine sulfoxide reductase (Bos taurus, UniProt P54149); assay: Absorbance-based biochemical high throughput dose response assay for activators of Methionine sulfoxide reductase A (MsrA).; format: functional
Mitochondrial peptide methionine sulfoxide reductase, sequence (P54149 whole entry): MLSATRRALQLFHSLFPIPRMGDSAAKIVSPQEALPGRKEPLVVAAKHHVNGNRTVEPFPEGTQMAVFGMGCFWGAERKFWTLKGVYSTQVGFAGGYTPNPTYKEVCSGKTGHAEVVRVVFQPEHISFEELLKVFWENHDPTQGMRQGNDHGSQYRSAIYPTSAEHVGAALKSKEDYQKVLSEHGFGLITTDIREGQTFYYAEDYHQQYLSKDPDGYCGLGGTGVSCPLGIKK

[26] = mouse fibroblast viability loss – cell-based, cherry-pick samples, set 2, cytotoxicity control for T. cruzi growth inhibitor project, dose response (AID 651817); format: functional; settings: NIH3T3
[27] = target: T8, Low molecular weight phosphotyrosine protein phosphatase (Homo sapiens, UniProt P24666); format: functional; settings: read-out: IC50_Mean
T8 sequence (P24666 whole entry): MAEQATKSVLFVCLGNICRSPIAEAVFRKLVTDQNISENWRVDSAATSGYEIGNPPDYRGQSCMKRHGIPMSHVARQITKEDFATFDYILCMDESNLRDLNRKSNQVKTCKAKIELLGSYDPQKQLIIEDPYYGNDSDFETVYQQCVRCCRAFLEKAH

[28] = target: T8, Low molecular weight phosphotyrosine protein phosphatase; format: functional; settings: read-out: IC50_Mean; remark: listed apart in the source
[29] = target: Cytochrome P450 2D6 (Homo sapiens, UniProt P10635);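 further: CYP2D6 member of a cytochrome P450 panel assay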
[30] = target: Cytochrome P450 3A4 (Homo sapiens, UniProt P08684);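 further: CYP3A4 tested as one member of a cytochrome P450 panel screen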
[31] = target: Aryl hydrocarbon receptor (Homo sapiens, UniProt P35869); settings: Potency;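 further: confirmatory quantitative high-throughput screen measuring activation of the AhR signaling pathway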
Aryl hydrocarbon receptor, sequence (P35869 whole entry): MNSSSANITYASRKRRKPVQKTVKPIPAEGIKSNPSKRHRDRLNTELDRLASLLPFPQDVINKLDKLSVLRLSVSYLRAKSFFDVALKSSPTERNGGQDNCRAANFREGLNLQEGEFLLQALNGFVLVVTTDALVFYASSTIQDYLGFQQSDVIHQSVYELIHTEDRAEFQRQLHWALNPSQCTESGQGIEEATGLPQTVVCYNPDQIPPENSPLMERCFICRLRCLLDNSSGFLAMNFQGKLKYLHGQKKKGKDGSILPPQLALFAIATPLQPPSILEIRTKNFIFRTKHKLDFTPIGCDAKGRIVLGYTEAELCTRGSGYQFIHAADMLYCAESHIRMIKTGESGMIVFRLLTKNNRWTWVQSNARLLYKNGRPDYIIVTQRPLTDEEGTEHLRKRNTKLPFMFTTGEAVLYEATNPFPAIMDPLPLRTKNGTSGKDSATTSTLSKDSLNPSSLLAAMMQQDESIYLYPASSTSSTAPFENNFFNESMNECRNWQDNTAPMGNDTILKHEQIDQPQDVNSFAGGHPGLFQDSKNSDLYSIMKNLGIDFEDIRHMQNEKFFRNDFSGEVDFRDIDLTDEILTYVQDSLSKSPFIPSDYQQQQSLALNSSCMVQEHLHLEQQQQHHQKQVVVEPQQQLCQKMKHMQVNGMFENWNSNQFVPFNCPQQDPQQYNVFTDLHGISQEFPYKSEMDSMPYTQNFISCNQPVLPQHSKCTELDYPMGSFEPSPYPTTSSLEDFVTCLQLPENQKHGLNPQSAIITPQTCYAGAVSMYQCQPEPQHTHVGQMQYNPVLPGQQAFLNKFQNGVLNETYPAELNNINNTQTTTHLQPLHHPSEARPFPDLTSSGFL

Cytochrome P450 2C19, sequence (P33261 whole entry, the tested form may be a part): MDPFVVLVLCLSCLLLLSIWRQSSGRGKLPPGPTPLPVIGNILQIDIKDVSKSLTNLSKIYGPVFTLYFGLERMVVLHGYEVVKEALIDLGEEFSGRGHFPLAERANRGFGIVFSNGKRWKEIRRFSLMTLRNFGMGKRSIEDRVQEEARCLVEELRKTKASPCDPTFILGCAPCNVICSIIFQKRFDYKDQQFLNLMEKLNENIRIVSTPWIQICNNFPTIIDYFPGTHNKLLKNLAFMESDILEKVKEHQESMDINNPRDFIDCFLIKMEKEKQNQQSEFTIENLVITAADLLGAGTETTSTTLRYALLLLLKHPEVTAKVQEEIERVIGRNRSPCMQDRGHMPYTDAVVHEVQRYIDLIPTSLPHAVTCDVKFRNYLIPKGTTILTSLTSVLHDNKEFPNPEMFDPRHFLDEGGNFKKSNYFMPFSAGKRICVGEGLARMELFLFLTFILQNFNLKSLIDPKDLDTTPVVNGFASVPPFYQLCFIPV

- AC50 [1]: 25.1 µM (inconclusive)
- AC50 [3]: 20 µM (inconclusive)
Compound: CC(C)c1ccc(O)c(NC(=O)c2nc[nH]n2)c1
- AC50 [2]: 118 µM (active)

Compound: Cc1cc(C)c2c(c1)NC(C(=O)O)C1CC=CC21 (stereo unspecified)
- IC50 [4]: > 100 µM (not active)
- IC50 [5]: 91.4 µM (active)
- IC50 [6]: > 100 µM (not active)
- IC50 [7]: 26.8 µM (active)
- IC50 [8]: 3.67 µM (active)
- IC50 [9]: > 100 µM (not active)
- IC50 [10]: 41.3 µM (active)
- AC50 [11]: 264 µM (active)
- AC50 [12]: 61.2 µM (active)
- IC50 [13]: 46.1 µM (active)
- IC50 [14]: 13.4 µM (active)
- IC50 [15]: 4.97 µM (active)
- IC50 [16]: 3.69 µM (active)
- IC50 [17]: 22.8 µM (inactive)
- IC50 [18]: 171 µM (active)

- IC50 [19]: 35.2 µM (inactive)
Compound: CCC(c1nc2ccccc2c(=O)n1CCCn1ccnc1)N1C(=O)c2ccccc2C1=O (stereo unspecified)

- EC50 [20]: > 89.2 µM (inactive)
Compound: Cc1cc(C)nc(Nc2nc(C(N)Cc3ccc(C(F)(F)F)cc3)cs2)n1 (stereo unspecified)

Compound: O=[N+]([O-])c1ccc(/C=N/c2cccc3ccccc23)s1
- EC50 [21]: 2.73 µM (active)
- EC50 [22]: > 60 µM (not active)
- IC50 [23]: > 50 µM (not active)
- AC50 [24]: 7.99 µM (active)
- EC50 [25]: > 104 µM (inactive)

Compound: Cc1ccc(S(=O)(=O)Nc2ccc3c(c2)CC(=O)N([C@@H](C)CO)C[C@@H](C)[C@H](CN(C)S(=O)(=O)c2ccc(Cl)cc2)O3)cc1
- AC50 [26]: 17.8 µM (active)

- IC50 [27]: 25.1 µM (inactive)
- IC50 [28]: 8.37 µM (active)
- AC50 [29]: 17.8 µM (inconclusive)
- AC50 [30]: 1 µM (inconclusive)
Compound: c1ccc(-c2nc(NCc3cccnc3)c3ccccc3n2)cc1

Compound: CCSC(=O)N(CC)C1CCCCC1 [CYCLOATE]
- AC50 [31]: 0.794 µM (inconclusive)
